The values below come from ChEMBL document CHEMBL5653628, “Selective JAK3 Inhibitors with a Covalent Reversible Binding Mode Targeting a New Induced Fit Binding Pocket” (Cell Chem Biol, 2016).

Assay [1] has as its target Tyrosine-protein kinase Blk (Homo sapiens) (UniProt P51451). The settings on record: dose 100.0 nM.
Description: Inhibition of BLK (unknown origin) at 100 nM relative to control
The test system of assay [2] is Epidermal growth factor receptor (Homo sapiens), P00533 [UNDEFINED MUTATION]. The settings on record: dose 100.0 nM.
Description: Inhibition of EGFR d747-752/P753S double mutant (unknown origin) at 100 nM relative to control
In assay [3] the target is Tyrosine-protein kinase ITK/TSK (Homo sapiens) (UniProt Q08881). The settings on record: dose 100.0 nM.
Description: Inhibition of ITK (unknown origin) at 100 nM relative to control
For assay [4], the target named is Tyrosine-protein kinase JAK2 (Homo sapiens) (UniProt O60674). The settings on record: dose 100.0 nM.
Description: Inhibition of JAK2 (unknown origin) at 100 nM relative to control
Assay [5] concerns the target T1, Tyrosine-protein kinase JAK3 (Homo sapiens) (UniProt P52333).
T1 sequence (whole entry): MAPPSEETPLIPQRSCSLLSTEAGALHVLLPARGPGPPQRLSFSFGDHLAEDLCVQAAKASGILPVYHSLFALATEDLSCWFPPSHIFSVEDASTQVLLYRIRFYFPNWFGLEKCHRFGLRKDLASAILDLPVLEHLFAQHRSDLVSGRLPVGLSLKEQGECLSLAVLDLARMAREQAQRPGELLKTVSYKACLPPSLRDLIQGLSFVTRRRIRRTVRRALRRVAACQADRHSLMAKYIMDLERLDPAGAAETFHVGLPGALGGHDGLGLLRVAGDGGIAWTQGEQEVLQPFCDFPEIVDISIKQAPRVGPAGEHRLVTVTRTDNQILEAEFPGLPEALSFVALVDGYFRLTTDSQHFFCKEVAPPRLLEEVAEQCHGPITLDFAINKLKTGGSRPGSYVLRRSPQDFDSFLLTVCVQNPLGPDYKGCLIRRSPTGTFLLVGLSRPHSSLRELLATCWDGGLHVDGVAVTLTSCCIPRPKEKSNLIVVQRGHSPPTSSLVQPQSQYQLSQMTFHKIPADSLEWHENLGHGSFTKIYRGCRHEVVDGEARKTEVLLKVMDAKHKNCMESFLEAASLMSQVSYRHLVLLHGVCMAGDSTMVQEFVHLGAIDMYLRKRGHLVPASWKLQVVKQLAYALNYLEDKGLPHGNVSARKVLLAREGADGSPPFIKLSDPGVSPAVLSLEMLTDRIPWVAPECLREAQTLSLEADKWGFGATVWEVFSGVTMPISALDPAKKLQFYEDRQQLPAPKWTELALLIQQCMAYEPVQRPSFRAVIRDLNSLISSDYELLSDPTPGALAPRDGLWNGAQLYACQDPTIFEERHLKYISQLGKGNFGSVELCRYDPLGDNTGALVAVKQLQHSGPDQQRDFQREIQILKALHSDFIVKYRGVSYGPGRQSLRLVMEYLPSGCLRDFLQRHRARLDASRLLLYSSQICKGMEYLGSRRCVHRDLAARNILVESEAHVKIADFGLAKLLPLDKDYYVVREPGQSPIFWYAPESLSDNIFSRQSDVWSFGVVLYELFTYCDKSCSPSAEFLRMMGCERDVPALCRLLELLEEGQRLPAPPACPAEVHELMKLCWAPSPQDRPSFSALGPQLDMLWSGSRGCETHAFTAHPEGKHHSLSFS
The settings on record: dose 100.0 nM.
Description: Inhibition of JAK3 (unknown origin) at 100 nM relative to control

The test system of assay [6] is Leucine-rich repeat serine/threonine-protein kinase 2 (Homo sapiens), Q5S007 [G2019S]. The settings on record: dose 100.0 nM.
Assay [7] has as its system Leucine-rich repeat serine/threonine-protein kinase 2 (Homo sapiens), Q5S007 [I2020T]. The settings on record: dose 100.0 nM.
The test system of assay [8] is Leucine-rich repeat serine/threonine-protein kinase 2 (Homo sapiens), Q5S007 [R1441C]. The settings on record: dose 100.0 nM.
In assay [9] the target is Leucine-rich repeat serine/threonine-protein kinase 2 (Homo sapiens) (UniProt Q5S007). The settings on record: dose 100.0 nM.
Description: Inhibition of wild-type LRRK2 (unknown origin) at 100 nM relative to control
In assay [10] the target is Mitogen-activated protein kinase kinase kinase 11 (Homo sapiens) (UniProt Q16584). The settings on record: dose 100.0 nM.
Description: Inhibition of MAP3K11 (unknown origin) at 100 nM relative to control
Assay [11] addresses Mitogen-activated protein kinase kinase kinase kinase 2 (Homo sapiens) (UniProt Q12851). The settings on record: dose 100.0 nM.
Description: Inhibition of MAP4K2 (unknown origin) at 100 nM relative to control
Assay [12] has as its target MAP kinase-activated protein kinase 2 (Homo sapiens) (UniProt P49137). The settings on record: dose 100.0 nM.
Description: Inhibition of MAPKAPK2 (unknown origin) at 100 nM relative to control
Assay [13] has as its target MAP kinase-activated protein kinase 5 (Homo sapiens) (UniProt Q8IW41). The settings on record: dose 100.0 nM.
Description: Inhibition of MAPKAPK5 (unknown origin) at 100 nM relative to control
In assay [14] the target is Misshapen-like kinase 1 (Homo sapiens) (UniProt Q8N4C8). The settings on record: dose 100.0 nM.
Description: Inhibition of MINK1 (unknown origin) at 100 nM relative to control
The target in assay [15] is Muscle, skeletal receptor tyrosine-protein kinase (Homo sapiens) (UniProt O15146). The settings on record: dose 100.0 nM.
Description: Inhibition of MUSK (unknown origin) at 100 nM relative to control
Assay [16] deals with Protein kinase C beta type (Homo sapiens) (UniProt P05771). The settings on record: dose 100.0 nM.
Description: Inhibition of PKC-beta2 (unknown origin) at 100 nM relative to control
The target in assay [17] is Protein kinase C delta type (Homo sapiens) (UniProt Q05655). The settings on record: dose 100.0 nM.
Description: Inhibition of PKC-delta (unknown origin) at 100 nM relative to control
In assay [18] the target is Serine/threonine-protein kinase N2 (Homo sapiens) (UniProt Q16513). The settings on record: dose 100.0 nM.
Description: Inhibition of PRK2 (unknown origin) at 100 nM relative to control
Assay [19] has as its target Rho-associated protein kinase 1 (Homo sapiens) (UniProt Q13464). The settings on record: dose 100.0 nM.
Description: Inhibition of ROCK1 (unknown origin) at 100 nM relative to control
In assay [20] the target is Ribosomal protein S6 kinase alpha-2 (Homo sapiens) (UniProt Q15349). The settings on record: dose 100.0 nM.
Description: Inhibition of RPS6KA2 (unknown origin) at 100 nM relative to control
Assay [21] concerns the target Ribosomal protein S6 kinase alpha-6 (Homo sapiens) (UniProt Q9UK32). The settings on record: dose 100.0 nM.
Description: Inhibition of RPS6KA6 (unknown origin) at 100 nM relative to control
In assay [22] the target is Non-receptor tyrosine-protein kinase TNK1 (Homo sapiens) (UniProt Q13470). The settings on record: dose 100.0 nM.
Sequence of Non-receptor tyrosine-protein kinase TNK1 (Homo sapiens) (Q13470 whole entry): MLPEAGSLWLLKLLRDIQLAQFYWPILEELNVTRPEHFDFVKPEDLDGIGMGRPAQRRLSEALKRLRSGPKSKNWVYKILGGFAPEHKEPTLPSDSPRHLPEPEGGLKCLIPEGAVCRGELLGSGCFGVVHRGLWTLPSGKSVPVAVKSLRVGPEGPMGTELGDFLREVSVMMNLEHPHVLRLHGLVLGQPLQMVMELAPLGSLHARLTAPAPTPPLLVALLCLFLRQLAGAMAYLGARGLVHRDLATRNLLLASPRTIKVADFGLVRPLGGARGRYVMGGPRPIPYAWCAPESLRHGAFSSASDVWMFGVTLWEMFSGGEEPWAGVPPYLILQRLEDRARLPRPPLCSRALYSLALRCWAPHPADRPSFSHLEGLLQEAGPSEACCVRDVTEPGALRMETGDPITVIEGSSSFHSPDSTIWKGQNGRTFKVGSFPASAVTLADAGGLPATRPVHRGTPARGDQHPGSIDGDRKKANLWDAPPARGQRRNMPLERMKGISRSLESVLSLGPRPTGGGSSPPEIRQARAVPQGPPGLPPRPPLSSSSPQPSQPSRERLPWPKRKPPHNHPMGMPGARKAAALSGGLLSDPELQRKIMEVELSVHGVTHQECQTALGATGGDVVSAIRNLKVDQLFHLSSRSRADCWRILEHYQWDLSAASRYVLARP
Description: Inhibition of TNK1 (unknown origin) at 100 nM relative to control
Assay [23] concerns the target Vascular endothelial growth factor receptor 2 (Homo sapiens, UniProt P35968). The settings on record: dose 100.0 nM.
Description: Inhibition of VEGFR2 (unknown origin) at 100 nM relative to control
Assay [24] concerns Epidermal growth factor receptor (Homo sapiens), P00533 [UNDEFINED MUTATION]. The settings on record: dose 500.0 nM.
Description: Inhibition of EGFR d747-752/P753S double mutant (unknown origin) at 500 nM relative to control
The target of assay [25] is T1, Tyrosine-protein kinase JAK3 (Homo sapiens). The settings on record: dose 500.0 nM.
Description: Inhibition of JAK3 (unknown origin) at 500 nM relative to control
Assay [26] has as its system CD4+ve Th. The settings on record: Homo sapiens, dose 50-100 nM, time 1.5 hrs.
Assay [27] concerns CD4+ve Th. The settings on record: Homo sapiens, dose <= 1000.0 nM, time 1.5 hrs.
Assay [28] has as its system CD4+ve Th. The settings on record: Homo sapiens, dose <= 1000.0 nM, time 1.5 hrs. The source holds these as a separate data set.
Assay [29] can be described thus: cells. The settings on record: Homo sapiens, CD4+ve Th, 1.5 h, read-out: INH.
Assay [30] in a line: cells. The settings on record: Homo sapiens, CD4+ve Th, 1.5 h, read-out: INH. This is another data set of the same source.
Assay [31] has as its target T2, Tyrosine-protein kinase Fyn (Homo sapiens, UniProt P06241). Put plainly: Inhibition of FYN (unknown origin) by trFRET binding assay.
Target sequence in this assay (P06241 whole entry): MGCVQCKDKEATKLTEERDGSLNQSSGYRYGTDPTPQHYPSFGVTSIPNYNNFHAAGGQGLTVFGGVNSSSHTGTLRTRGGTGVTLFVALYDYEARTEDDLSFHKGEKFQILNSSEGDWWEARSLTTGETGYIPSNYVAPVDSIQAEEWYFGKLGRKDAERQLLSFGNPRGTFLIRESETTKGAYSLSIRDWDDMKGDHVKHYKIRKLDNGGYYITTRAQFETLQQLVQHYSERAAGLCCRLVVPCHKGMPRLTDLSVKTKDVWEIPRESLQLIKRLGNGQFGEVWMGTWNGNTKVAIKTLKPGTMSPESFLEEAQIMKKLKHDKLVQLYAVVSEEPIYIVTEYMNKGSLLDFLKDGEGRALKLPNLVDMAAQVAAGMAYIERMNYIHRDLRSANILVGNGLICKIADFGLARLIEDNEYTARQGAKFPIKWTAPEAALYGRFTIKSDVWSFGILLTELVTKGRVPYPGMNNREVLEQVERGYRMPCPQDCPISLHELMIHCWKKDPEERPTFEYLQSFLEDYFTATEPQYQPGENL
The target in assay [32] is Dual specificity protein kinase CLK3 (Homo sapiens) (UniProt P49761). The settings on record: dose 500.0 nM.
Description: Inhibition of CLK3 (unknown origin) at 500 nM relative to control
The target in assay [33] is Tyrosine-protein kinase CSK (Homo sapiens) (UniProt P41240). The settings on record: dose 500.0 nM.
Sequence of Tyrosine-protein kinase CSK (Homo sapiens) (P41240 2-450 limits assumed): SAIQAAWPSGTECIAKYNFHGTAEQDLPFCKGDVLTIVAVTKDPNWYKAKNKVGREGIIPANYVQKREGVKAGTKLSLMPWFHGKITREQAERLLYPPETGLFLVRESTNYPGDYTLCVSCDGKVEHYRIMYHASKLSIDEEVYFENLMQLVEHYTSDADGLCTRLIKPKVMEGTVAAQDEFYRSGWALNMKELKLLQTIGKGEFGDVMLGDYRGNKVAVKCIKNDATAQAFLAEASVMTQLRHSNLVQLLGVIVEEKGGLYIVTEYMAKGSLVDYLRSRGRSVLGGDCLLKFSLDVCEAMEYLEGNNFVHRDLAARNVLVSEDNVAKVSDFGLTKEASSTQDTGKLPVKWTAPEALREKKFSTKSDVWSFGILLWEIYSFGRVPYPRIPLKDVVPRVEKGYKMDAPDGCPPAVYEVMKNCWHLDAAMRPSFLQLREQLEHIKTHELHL
Description: Inhibition of CSK (unknown origin) at 500 nM relative to control
The target in assay [34] is Receptor tyrosine-protein kinase erbB-4 (Homo sapiens) (UniProt Q15303). The settings on record: dose 500.0 nM.
Description: Inhibition of ERBB4 (unknown origin) at 500 nM relative to control
The test system of assay [35] is Fibroblast growth factor receptor 3 (Homo sapiens), P22607 [G697C]. The settings on record: dose 500.0 nM.
For assay [36], the target named is T2, Tyrosine-protein kinase Fyn. The settings on record: dose 500.0 nM.
Target sequence in this assay (P06241 2-537 limits assumed): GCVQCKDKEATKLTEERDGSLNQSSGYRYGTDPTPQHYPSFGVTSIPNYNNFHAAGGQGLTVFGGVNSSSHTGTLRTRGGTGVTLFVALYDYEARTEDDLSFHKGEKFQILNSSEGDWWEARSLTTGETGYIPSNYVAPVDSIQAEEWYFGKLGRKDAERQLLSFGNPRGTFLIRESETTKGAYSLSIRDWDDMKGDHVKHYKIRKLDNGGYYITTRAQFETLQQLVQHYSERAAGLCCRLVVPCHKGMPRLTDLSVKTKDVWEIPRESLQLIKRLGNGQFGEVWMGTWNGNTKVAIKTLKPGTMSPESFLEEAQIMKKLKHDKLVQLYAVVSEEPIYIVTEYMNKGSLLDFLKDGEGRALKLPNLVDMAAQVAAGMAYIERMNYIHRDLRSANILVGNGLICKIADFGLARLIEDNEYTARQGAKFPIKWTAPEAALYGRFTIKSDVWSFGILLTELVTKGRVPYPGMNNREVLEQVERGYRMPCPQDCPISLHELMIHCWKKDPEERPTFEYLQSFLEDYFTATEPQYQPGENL
Description: Inhibition of wild-type FYN (unknown origin) at 500 nM relative to control
Assay [37] concerns the target G protein-coupled receptor kinase 6 (Homo sapiens) (UniProt P43250). The settings on record: dose 500.0 nM.
Description: Inhibition of GRK6 (unknown origin) at 500 nM relative to control
Assay [38] has as its target Serine/threonine-protein kinase haspin (Homo sapiens) (UniProt Q8TF76). The settings on record: dose 500.0 nM.
Description: Inhibition of GSG2 (unknown origin) at 500 nM relative to control
For assay [39], the target named is Homeodomain-interacting protein kinase 1 (Homo sapiens) (UniProt Q86Z02). The settings on record: dose 500.0 nM.
Description: Inhibition of HIPK1 (unknown origin) at 500 nM relative to control
For assay [40], the system named is Mast/stem cell growth factor receptor Kit (Homo sapiens), P10721 [V559D,V654A]. The settings on record: dose 500.0 nM.
The target of assay [41] is MAP kinase-activated protein kinase 2 (Homo sapiens) (UniProt P49137). The settings on record: dose 500.0 nM.
Sequence of MAP kinase-activated protein kinase 2 (Homo sapiens) (P49137 whole entry, looked up): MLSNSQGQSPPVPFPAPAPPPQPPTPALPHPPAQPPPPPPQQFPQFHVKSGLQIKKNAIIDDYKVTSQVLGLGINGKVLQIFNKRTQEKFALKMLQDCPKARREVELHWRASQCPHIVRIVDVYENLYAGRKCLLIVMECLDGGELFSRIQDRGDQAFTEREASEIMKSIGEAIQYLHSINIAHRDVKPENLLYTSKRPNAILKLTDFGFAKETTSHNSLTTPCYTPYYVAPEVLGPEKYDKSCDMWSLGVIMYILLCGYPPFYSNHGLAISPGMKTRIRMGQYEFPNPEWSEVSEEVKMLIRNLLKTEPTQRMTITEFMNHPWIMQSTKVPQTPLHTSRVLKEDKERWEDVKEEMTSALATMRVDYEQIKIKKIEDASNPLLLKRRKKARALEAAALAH
Description: Inhibition of MAPKAPK2 (unknown origin) at 500 nM relative to control
Assay [42] concerns the target MAP kinase-activated protein kinase 3 (Homo sapiens) (UniProt Q16644). The settings on record: dose 500.0 nM.
Description: Inhibition of MAPKAPK3 (unknown origin) at 500 nM relative to control
For assay [43], the target named is Hepatocyte growth factor-like protein (Homo sapiens) (UniProt P26927). The settings on record: dose 500.0 nM.
Description: Inhibition of MST1 (unknown origin) at 500 nM relative to control
The target in assay [44] is Serine/threonine-protein kinase Nek6 (Homo sapiens) (UniProt Q9HC98). The settings on record: dose 500.0 nM.
Description: Inhibition of NEK6 (unknown origin) at 500 nM relative to control
Assay [45] concerns the target Mitogen-activated protein kinase kinase kinase kinase 4 (Homo sapiens) (UniProt O95819). The settings on record: dose 500.0 nM.
Description: Inhibition of NIK (unknown origin) at 500 nM relative to control
Assay [46] has as its system NPM/ALK (Nucleophosmin/ALK tyrosine kinase receptor) (Homo sapiens), Q9UM73+P06748 [F1174L]. The settings on record: dose 500.0 nM.
Description: Inhibition of NPM1ALK F1174L mutant (unknown origin) at 500 nM relative to control
The target in assay [47] is Mitogen-activated protein kinase 14 (Homo sapiens) (UniProt Q16539). The settings on record: dose 500.0 nM.
Description: Inhibition of p38-alpha (unknown origin) at 500 nM relative to control
The target in assay [48] is Serine/threonine-protein kinase D1 (Homo sapiens) (UniProt Q15139). The settings on record: dose 500.0 nM.
Description: Inhibition of PKC-mu (unknown origin) at 500 nM relative to control
Assay [49] concerns the target Macrophage-stimulating protein receptor (Homo sapiens) (UniProt Q04912). The settings on record: dose 500.0 nM.
Description: Inhibition of RON (unknown origin) at 500 nM relative to control
Assay [50] has as its target STE20/SPS1-related proline-alanine-rich protein kinase (Homo sapiens) (UniProt Q9UEW8). The settings on record: dose 500.0 nM.
Description: Inhibition of STK39 (unknown origin) at 500 nM relative to control
In assay [51] the target is Phosphatidylinositol 3-kinase catalytic subunit type 3 (Homo sapiens) (UniProt Q8NEB9). The settings on record: dose 500.0 nM.
Description: Inhibition of PIK3C3 (unknown origin) at 500 nM relative to control
The target of assay [52] is Phosphatidylinositol 4,5-bisphosphate 3-kinase catalytic subunit gamma isoform (Homo sapiens) (UniProt P48736). The settings on record: dose 500.0 nM.
Description: Inhibition of PIK3CG (unknown origin) at 500 nM relative to control
Assay [53] addresses T1, Tyrosine-protein kinase JAK3 (Homo sapiens). The settings on record: HeLa, dose 100.0 nM, time 2.0 hrs.
Assay [54] has the same target. The settings on record: HeLa, dose 100.0 nM, time 1.0 hrs.
The target of assay [55] is T3, Tyrosine-protein kinase JAK3 (Homo sapiens, UniProt P52333).
T3 sequence (P52333 whole entry): T1 sequence (whole entry)
Description: Inhibition of JAK3 (unknown origin) in presence of ATP by radiometric assay

The next assay addresses Protein kinase C (PKC). Put plainly: Inhibition of PKC (unknown origin). Format: protein assay, Homo sapiens.
Assay [56] has as its target Glycogen synthase kinase-3 beta (Homo sapiens, UniProt P49841). Put plainly: Inhibition of GSK3beta (unknown origin).
For a further assay, the species on record is Homo sapiens. Kind of assay: Inhibition of AMPK (unknown origin) at 1 uM relative to control.

Calls of active or inactive are those of the source. No cut-off for these calls is given here. Some results are limits rather than exact numbers.

Sequence of Epidermal growth factor receptor (Homo sapiens), P00533 [UNDEFINED MUTATION] (P00533 whole entry, looked up, change not shown): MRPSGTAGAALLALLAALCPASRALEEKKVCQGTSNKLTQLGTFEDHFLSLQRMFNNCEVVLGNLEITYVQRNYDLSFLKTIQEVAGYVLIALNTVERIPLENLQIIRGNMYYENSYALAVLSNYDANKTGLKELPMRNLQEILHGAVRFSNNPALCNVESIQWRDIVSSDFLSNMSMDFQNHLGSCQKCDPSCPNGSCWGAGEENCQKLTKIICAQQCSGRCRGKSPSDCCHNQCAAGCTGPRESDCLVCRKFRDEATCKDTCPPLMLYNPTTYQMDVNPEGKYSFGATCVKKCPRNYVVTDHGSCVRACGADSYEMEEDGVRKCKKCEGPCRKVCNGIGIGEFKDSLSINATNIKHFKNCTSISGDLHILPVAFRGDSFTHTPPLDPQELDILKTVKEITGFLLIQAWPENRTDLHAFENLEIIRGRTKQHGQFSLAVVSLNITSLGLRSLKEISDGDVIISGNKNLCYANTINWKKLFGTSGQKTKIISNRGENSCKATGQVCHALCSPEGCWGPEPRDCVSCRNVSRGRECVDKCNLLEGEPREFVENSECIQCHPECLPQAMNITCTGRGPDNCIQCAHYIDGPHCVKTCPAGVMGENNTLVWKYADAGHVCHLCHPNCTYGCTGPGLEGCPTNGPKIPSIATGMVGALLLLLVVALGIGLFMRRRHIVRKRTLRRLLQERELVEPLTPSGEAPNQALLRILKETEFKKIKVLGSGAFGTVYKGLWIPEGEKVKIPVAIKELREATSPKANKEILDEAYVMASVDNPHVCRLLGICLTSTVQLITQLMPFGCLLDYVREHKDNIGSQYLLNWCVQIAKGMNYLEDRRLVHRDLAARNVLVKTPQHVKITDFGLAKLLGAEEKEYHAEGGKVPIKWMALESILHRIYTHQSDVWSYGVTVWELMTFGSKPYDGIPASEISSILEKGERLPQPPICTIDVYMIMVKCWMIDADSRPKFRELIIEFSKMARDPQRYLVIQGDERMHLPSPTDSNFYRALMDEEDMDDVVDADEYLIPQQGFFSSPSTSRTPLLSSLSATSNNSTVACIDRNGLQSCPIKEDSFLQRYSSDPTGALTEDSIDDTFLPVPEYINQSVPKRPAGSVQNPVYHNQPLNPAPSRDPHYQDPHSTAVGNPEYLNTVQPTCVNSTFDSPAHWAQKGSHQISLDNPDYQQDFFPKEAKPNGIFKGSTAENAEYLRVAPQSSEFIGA
Sequence of Tyrosine-protein kinase Blk (Homo sapiens) (P51451 2-505 limits assumed): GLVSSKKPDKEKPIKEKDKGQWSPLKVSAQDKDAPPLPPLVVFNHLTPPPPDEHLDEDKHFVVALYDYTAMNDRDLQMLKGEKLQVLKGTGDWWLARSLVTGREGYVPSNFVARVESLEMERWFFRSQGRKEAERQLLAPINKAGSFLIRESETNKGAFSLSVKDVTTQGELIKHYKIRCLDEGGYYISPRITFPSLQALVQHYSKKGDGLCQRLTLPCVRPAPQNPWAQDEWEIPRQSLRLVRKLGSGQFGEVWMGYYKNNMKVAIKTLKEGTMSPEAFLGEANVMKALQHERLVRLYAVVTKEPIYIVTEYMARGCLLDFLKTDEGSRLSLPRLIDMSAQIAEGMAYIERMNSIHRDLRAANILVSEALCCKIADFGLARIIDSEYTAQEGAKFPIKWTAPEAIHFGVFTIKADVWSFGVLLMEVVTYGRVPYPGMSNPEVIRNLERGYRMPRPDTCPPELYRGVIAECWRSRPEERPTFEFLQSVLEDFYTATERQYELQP
Sequence of Glycogen synthase kinase-3 beta (P49841 whole entry): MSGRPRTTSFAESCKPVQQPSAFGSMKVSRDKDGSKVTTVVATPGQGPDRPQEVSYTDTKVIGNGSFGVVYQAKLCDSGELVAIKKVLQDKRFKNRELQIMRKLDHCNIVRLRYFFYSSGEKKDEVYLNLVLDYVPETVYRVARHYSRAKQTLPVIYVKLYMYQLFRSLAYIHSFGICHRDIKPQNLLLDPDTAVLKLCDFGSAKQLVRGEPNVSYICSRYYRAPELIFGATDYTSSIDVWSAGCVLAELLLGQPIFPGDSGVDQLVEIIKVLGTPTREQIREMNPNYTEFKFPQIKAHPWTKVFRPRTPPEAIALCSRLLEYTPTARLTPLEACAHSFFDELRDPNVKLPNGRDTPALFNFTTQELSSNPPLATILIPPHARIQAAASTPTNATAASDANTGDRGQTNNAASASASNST

Take `CC1CCCCC1n1c(-c2ccc(C=C(C#N)C(=O)N(C)C)o2)nc2cnc3[nH]ccc3c21` (mixture of isomers): the inhibition in assay [1] turned out to be 57%; in [2], 100%; in assay [3] it was 52%; in [4], 60%; in assay [5] it was 3%; in assay [6] it was 48%. Also, the inhibition in assay [7] amounted to 40%; in assay [8], 22%; in assay [9] it was 34%; in [10], 49%; in assay [11], 54%; in [12], 60%. The inhibition in assay [13] came out at 100%; in assay [14], 100%; in assay [15], 61%; in assay [16], 31%; in [17], 60%; in assay [18], 48%. Moreover, the inhibition in assay [19] turned out to be 61%; in [20], 26%; in assay [21], 40%; in assay [22], 51%; in assay [23], 60%; in assay [24], 100%. For the same compound, the inhibition in assay [25] was 3%. The inhibition result in the assay with CD4+ve Th [26] was “Active”. Besides, the inhibition entry with CD4+ve Th [27] and in the assay with CD4+ve Th [28] was “inactive” each time. The inhibition at 0.3 µM in the assay “cells [29]” and in “cells [30]” was 100% throughout.
As to `CN(C)C(=O)C(C#N)=Cc1ccc(-c2nc3cnc4[nH]ccc4c3n2C2CCCCC2)o1` (mixture of isomers), in assay [31], the half-inhibitory concentration (IC50) – broadly, the point on the concentration scale where inhibition reaches its midpoint – came to 660 nM. For the same compound, the inhibition in [32] is 65%; in [33], 100%; in assay [34], 100%; in [35] it was 135%; in [36], 135%; in [37] it was 62%. The inhibition in assay [38] was found to be 133%; in assay [39] it was 100%; in assay [25], 11%; in [40] it was 142%; in assay [41] it was 53%; in [42], 100%. For the same compound, the inhibition in [43], in assay [44], in assay [45], in assay [46], in assay [47] and in assay [48] was 100% in each case. The inhibition in assay [49] was found to be 145%; in [50], 148%; in assay [51], 100%; in assay [52], 141%. The inhibition entry (in assay [53]; in assay [54]; in the assay on CD4+ve Th [26]) was “Active” each time. The inhibition entry in the assay on CD4+ve Th [27] and in the assay on CD4+ve Th [28] was “inactive” in each case. The inhibition at 0.3 µM in “cells [29]” and in “cells [30]” was 100% each time.
Take `Cn1c(=O)n([C@@H]2CC[C@@H](O)c3ccccc32)c2cc(-n3cnc4ccc(C#N)cc43)ccc21`: the IC50 in assay [55] came to 0.9 nM.
With `CC(C)(O)C(=O)N1CCN(c2ccc(C(F)(F)F)c(C3=C(c4c[nH]c5ccccc45)C(=O)NC3=O)c2)CC1`, the half-inhibitory concentration (IC50) (on Protein kinase C (PKC); in assay [56]) was less than 1000 nM each time.
For `CN(C)C/C=C/C(=O)Nc1nc2cnc3[nH]ccc3c2n1C`, in assay [55], it took 7 nM to reach half-maximal inhibition (IC50).
As to `CC(C)(C)[C@@H](NC(=O)c1c[nH]c2ncc(C3CC3)nc12)C(=O)N1CC(C#N)C1`, the inhibition in the assay filed under Homo sapiens was 67%.
